Each structure is given as a SMILES string. Where a name gives a salt, the structure may show the parent alone.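 Tested at 5 concentrations; 48 h exposure; 96-well plates; endpoints linearly interpolated, else capped at highest concentration. GI50 = concentration required for 50% inhibition of growth.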 Calls of active or inactive are those of the source. Rule as the data show it: active = GI50 up to about 1.1 µM and inactive = higher. A value given as a limit tells only on which side of the number the result lay.

Test systems include NCI/ADR-RES; COLO 205; KM12; MDA-N; A549; SK-MEL-2; PC-3; HOP-62; MDA-MB-231; SW-620; SF-539; UACC-62; IGROV-1; OVCAR-8; Hs-578T; MCF7; A498; MOLT-4; OVCAR-3; DU-145.
Holding throughout (experiment): NCI tumour cell line growth inhibition, 48 h

As to `C#Cc1cccc(Nc2ncnc3cc(OCCOC)c(OCCOC)cc23)c1` [ERLOTINIB HYDROCHLORIDE], the GI50 is 7.67 µM (inactive) in the assay on NCI/ADR-RES; 4.99 µM (inactive) in the assay with COLO 205; 18.2 µM (inactive) with KM12; 41 µM (inactive) in the assay with MDA-N; 1.59 µM (inactive) with A549; 4.11 µM (inactive) in the assay with SK-MEL-2. Moreover, the GI50 in the assay on PC-3 was 34.5 µM (inactive); in the assay on HOP-62, 31.3 µM (inactive); in the assay with MDA-MB-231 it was 0.0139 µM (active); in the assay with SW-620, > 100 µM (inactive); in the assay with SF-539, 15.4 µM (inactive); in the assay with UACC-62, < 0.01 µM (active). Moreover, the GI50 with IGROV-1 is 0.0857 µM (active); with OVCAR-8 it was 7.23 µM (inactive); with Hs-578T, 5.01 µM (inactive).
Take `CCOC(=O)c1ccc(NCc2ccc3oc(=O)c(-c4ccccc4)nc3c2)cc1`: the GI50 is 15.8 µM (inactive) with MCF7; 61.1 µM (inactive) in the assay with A498; 50.7 µM (inactive) in the assay with NCI/ADR-RES; 23.2 µM (inactive) with COLO 205; > 100 µM (inactive) in the assay on KM12; 21.5 µM (inactive) in the assay on MDA-N. Further, the GI50 is 68.5 µM (inactive) in the assay on A549; > 100 µM (inactive) in the assay on SK-MEL-2; 45.2 µM (inactive) in the assay with PC-3; > 100 µM (inactive) with HOP-62; 64.7 µM (inactive) in the assay on MDA-MB-231; 21.6 µM (inactive) with SW-620. In addition, the GI50 is 15.1 µM (inactive) in the assay on MOLT-4; 18.7 µM (inactive) with OVCAR-3; > 100 µM (inactive) with SF-539; > 100 µM (inactive) in the assay on UACC-62; 67 µM (inactive) with IGROV-1; 18.8 µM (inactive) in the assay with OVCAR-8. Further, the GI50 in the assay with DU-145 was 36.2 µM (inactive).
Turning to `O=C(O)CC(CC(=O)O)n1cccc1`, the GI50 with MCF7, in the assay with A498, in the assay on NCI/ADR-RES, in the assay on COLO 205, with KM12 and in the assay with MDA-N was > 100 µM (inactive) in each case. Besides, the GI50 in the assay on A549, in the assay on SK-MEL-2, in the assay on PC-3, in the assay on HOP-62, in the assay with MDA-MB-231 and with SW-620 was > 100 µM (inactive) in each case. Besides, the GI50 in the assay with MOLT-4, in the assay on OVCAR-3, in the assay with SF-539, in the assay on UACC-62, with IGROV-1 and in the assay on OVCAR-8 was > 100 µM (inactive) in each case. Further, the GI50 in the assay on DU-145 was > 100 µM (inactive).
As for `CNC1=CC(=O)C2=C(C1=O)[C@H]1CC[C@]3(C)C(=O)CC[C@H]3[C@@H]1CC2`, the GI50 is 20.2 µM (inactive) in the assay with MCF7; 22.2 µM (inactive) in the assay with A498; 13 µM (inactive) with NCI/ADR-RES; 13.7 µM (inactive) in the assay on COLO 205; 7.43 µM (inactive) in the assay with KM12; 8.17 µM (inactive) in the assay with MDA-N. In addition, the GI50 in the assay with A549 is 19.8 µM (inactive); in the assay on SK-MEL-2, 2.63 µM (inactive); in the assay on PC-3 it was 13.1 µM (inactive); in the assay on HOP-62 it was 15.2 µM (inactive); in the assay with MDA-MB-231 it was 24.5 µM (inactive); in the assay with SW-620, 22.9 µM (inactive). Moreover, the GI50 was 11.1 µM (inactive) in the assay on MOLT-4; 1.16 µM (inactive) with OVCAR-3; 18.4 µM (inactive) with SF-539; 14 µM (inactive) in the assay with UACC-62; 5.43 µM (inactive) with IGROV-1; 9.71 µM (inactive) in the assay on OVCAR-8. Moreover, the GI50 in the assay with DU-145 was 15 µM (inactive).
For the molecule `O=[N+]([O-])C(C(Cl)=C(Cl)Cl)=C(N1CCOCC1)N1CCOCC1`, the GI50 in the assay on A498, in the assay with COLO 205, with KM12, in the assay with MDA-N, with A549 and in the assay with SK-MEL-2 was > 100 µM (inactive) in each case. Also, the GI50 in the assay on PC-3 was > 100 µM (inactive); with HOP-62, > 100 µM (inactive); with MDA-MB-231, > 100 µM (inactive); in the assay on MOLT-4, 63.2 µM (inactive); with OVCAR-3 it was > 100 µM (inactive); in the assay with SF-539, > 100 µM (inactive). The GI50 in the assay with UACC-62 is > 100 µM (inactive); in the assay on IGROV-1, > 100 µM (inactive); in the assay with OVCAR-8, > 100 µM (inactive); in the assay with DU-145, > 100 µM (inactive); with Hs-578T, 54.2 µM (inactive).
In the case of `CN(C)c1cccc2c(S(=O)(=O)NCCCNCCN)cccc12`, the GI50 is 29.6 µM (inactive) in the assay on A498; > 100 µM (inactive) in the assay with NCI/ADR-RES; 17.6 µM (inactive) with COLO 205; 67 µM (inactive) in the assay with KM12; 26.2 µM (inactive) with MDA-N; 66.5 µM (inactive) in the assay with A549. Further, the GI50 was 25.9 µM (inactive) in the assay on SK-MEL-2; 44.2 µM (inactive) in the assay on PC-3; 67.8 µM (inactive) in the assay with HOP-62; 41.5 µM (inactive) in the assay with MDA-MB-231; 55.2 µM (inactive) in the assay with SW-620; 18.6 µM (inactive) with MOLT-4. The GI50 was 62.5 µM (inactive) with OVCAR-3; 21.3 µM (inactive) in the assay with SF-539; 51.2 µM (inactive) with UACC-62; 67.9 µM (inactive) in the assay with IGROV-1; > 100 µM (inactive) in the assay with DU-145; 22.3 µM (inactive) in the assay on Hs-578T.
Take `CC1=CC(=O)C[C@]2(C)[C@@H](O)CC(C(C)CO)C[C@@H]12` (stereo partly drawn): the GI50 with MCF7, with A498, with NCI/ADR-RES, in the assay with COLO 205, with KM12 and with MDA-N was > 100 µM (inactive) in each case. Besides, the GI50 in the assay on A549, in the assay on SK-MEL-2, in the assay with HOP-62, in the assay on MDA-MB-231, in the assay with SW-620 and in the assay with MOLT-4 was > 100 µM (inactive) in each case. Also, the GI50 in the assay on OVCAR-3, with SF-539, with UACC-62, in the assay with IGROV-1, in the assay with OVCAR-8 and with DU-145 was > 100 µM (inactive) throughout.
For `O=C1CCCC1C(=O)Nc1ccc2ccccc2c1` (stereo not drawn), the GI50 was > 100 µM (inactive) in the assay on MCF7; > 100 µM (inactive) with A498; > 100 µM (inactive) in the assay with NCI/ADR-RES; > 100 µM (inactive) in the assay on COLO 205; 84.9 µM (inactive) in the assay on KM12; > 100 µM (inactive) in the assay on MDA-N. Also, the GI50 in the assay on A549, with SK-MEL-2, with PC-3, with HOP-62, in the assay with MDA-MB-231 and in the assay with SW-620 was > 100 µM (inactive) throughout. Also, the GI50 with MOLT-4 was 36.2 µM (inactive); with OVCAR-3, > 100 µM (inactive); with UACC-62 it was > 100 µM (inactive); in the assay with IGROV-1, > 100 µM (inactive); in the assay with OVCAR-8, > 100 µM (inactive); in the assay with DU-145, > 100 µM (inactive).

The values above are taken from ChEMBL document CHEMBL1201862, “PubChem BioAssay data set” (2004).
